Measured values from PubChem BioAssay (NCI).
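Dose response: 5 concentrations. Exposure: 48 h. Format: 96-well plates. Endpoint: linear interpolation; highest concentration if not reached. GI50 = concentration required for 50% inhibition of growth. The concentration for full growth arrest is given as TGI.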

Experiments:
Test in all cases: NCI anticancer screen, dose series, 48 h
[1] = test system: U251 CNS
[2] = test system: MCF7 breast
[3] = test system: LOX IMVI melanoma
[4] = test system: DU-145 prostate
[5] = test system: OVCAR-8 ovarian
[6] = test system: MDA-MB-231 breast
[7] = test system: SF-295 CNS
[8] = test system: BT-549 breast
[9] = test system: SK-MEL-2 melanoma
[10] = test system: NCI/ADR-RES ovarian
[11] = test system: SK-OV-3 ovarian
[12] = test system: HS 578T breast
[13] = test system: T-47D breast
[14] = test system: COLO 205 colon
[15] = test system: RXF 393 renal
[16] = test system: ACHN renal
[17] = test system: HL-60(TB) leukemia
[18] = test system: HCC-2998 colon
[19] = test system: MOLT-4 leukemia
[20] = test system: HOP-92 NSCLC
[21] = test system: TK-10 renal
[22] = test system: KM12 colon
[23] = test system: EKVX NSCLC
[24] = test system: SNB-75 CNS
[25] = test system: CAKI-1 renal
[26] = test system: NCI-H23 lung
[27] = test system: OVCAR-4 ovarian
[28] = test system: UO-31 renal
[29] = test system: SF-539 CNS
[30] = test system: UACC-62 melanoma
[31] = test system: MALME-3M melanoma
[32] = test system: HCT-15 colon
[33] = test system: NCI-H226 lung
[34] = test system: RPMI-8226 leukemia
[35] = test system: SW-620 colon
[36] = test system: PC-3 prostate
[37] = test system: SK-MEL-28 melanoma
[38] = test system: OVCAR-5 ovarian
[39] = test system: CCRF-CEM leukemia
[40] = test system: NCI-H522 lung
[41] = test system: SNB-19 CNS
[42] = test system: M14 melanoma
[43] = test system: OVCAR-3 ovarian
[44] = test system: A498 renal
[45] = test system: UACC-257 melanoma
[46] = test system: 786-0 renal
[47] = test system: HOP-62 NSCLC
[48] = test system: IGROV1 ovarian
[49] = test system: HT29 colon
[50] = test system: MDA-MB-435
[51] = test system: HCT-116 colon
[52] = test system: A549 NSCLC
[53] = test system: NCI-H460 lung
[54] = test system: SN12C renal
[55] = test system: SF-268 CNS
[56] = test system: K-562 leukemia
[57] = test system: SK-MEL-5 melanoma

COc1ccc(-c2cc(-c3cn[nH]c3-c3ccccn3)ccn2)cc1
GI50 [1]: > 25 µM
TGI [1]: > 25 µM
GI50 [2]: > 25 µM
TGI [2]: > 25 µM
GI50 [3]: > 25 µM
TGI [3]: > 25 µM
GI50 [4]: > 25 µM
TGI [4]: > 25 µM
GI50 [5]: > 25 µM
TGI [5]: > 25 µM
GI50 [6]: > 25 µM
TGI [6]: > 25 µM
GI50 [7]: > 25 µM
TGI [7]: > 25 µM
GI50 [8]: > 25 µM
TGI [8]: > 25 µM
GI50 [9]: > 25 µM
TGI [9]: > 25 µM
GI50 [10]: > 25 µM
TGI [10]: > 25 µM
GI50 [11]: > 25 µM
TGI [11]: > 25 µM
GI50 [12]: > 25 µM
TGI [12]: > 25 µM
GI50 [13]: > 25 µM
TGI [13]: > 25 µM
GI50 [14]: > 25 µM
TGI [14]: > 25 µM
GI50 [15]: > 25 µM
TGI [15]: > 25 µM
GI50 [16]: > 25 µM
TGI [16]: > 25 µM
GI50 [17]: > 25 µM
TGI [17]: > 25 µM
GI50 [18]: > 25 µM
TGI [18]: > 25 µM
GI50 [19]: > 25 µM
TGI [19]: > 25 µM
GI50 [20]: > 25 µM
TGI [20]: > 25 µM
GI50 [21]: > 25 µM
TGI [21]: > 25 µM
GI50 [22]: > 25 µM
TGI [22]: > 25 µM
GI50 [23]: > 25 µM
TGI [23]: > 25 µM
GI50 [24]: > 25 µM
TGI [24]: > 25 µM
GI50 [25]: > 25 µM
TGI [25]: > 25 µM
GI50 [26]: > 25 µM
TGI [26]: > 25 µM
GI50 [27]: > 25 µM
TGI [27]: > 25 µM
GI50 [28]: 20.4 µM
TGI [28]: > 25 µM
GI50 [29]: > 25 µM
TGI [29]: > 25 µM
GI50 [30]: > 25 µM
TGI [30]: > 25 µM
GI50 [31]: > 25 µM
TGI [31]: > 25 µM
GI50 [32]: > 25 µM
TGI [32]: > 25 µM
GI50 [33]: > 25 µM
TGI [33]: > 25 µM
GI50 [34]: > 25 µM
TGI [34]: > 25 µM
GI50 [35]: > 25 µM
TGI [35]: > 25 µM
GI50 [36]: > 25 µM
TGI [36]: > 25 µM
GI50 [37]: > 25 µM
TGI [37]: > 25 µM
GI50 [38]: > 25 µM
TGI [38]: > 25 µM
GI50 [39]: > 25 µM
TGI [39]: > 25 µM
GI50 [40]: > 25 µM
TGI [40]: > 25 µM
GI50 [41]: > 25 µM
TGI [41]: > 25 µM
GI50 [42]: > 25 µM
TGI [42]: > 25 µM
GI50 [43]: > 25 µM
TGI [43]: > 25 µM
GI50 [44]: > 25 µM
TGI [44]: > 25 µM
GI50 [45]: > 25 µM
TGI [45]: > 25 µM
GI50 [46]: > 25 µM
TGI [46]: > 25 µM
GI50 [47]: > 25 µM
TGI [47]: > 25 µM
GI50 [48]: > 25 µM
TGI [48]: > 25 µM
GI50 [49]: > 25 µM
TGI [49]: > 25 µM
GI50 [50]: > 19.2 µM
TGI [50]: > 25 µM
GI50 [51]: > 25 µM
TGI [51]: > 25 µM
GI50 [52]: > 25 µM
TGI [52]: > 25 µM
GI50 [53]: > 25 µM
TGI [53]: > 25 µM
GI50 [54]: > 25 µM
TGI [54]: > 25 µM
GI50 [55]: > 25 µM
TGI [55]: > 25 µM
GI50 [56]: 14 µM
TGI [56]: > 25 µM
GI50 [57]: > 25 µM
TGI [57]: > 25 µM

O=C(Nc1ccccc1)NS(=O)(=O)c1ccc(N2N=C3c4ccccc4CC3C2c2ccccn2)cc1 (configuration not stated)
GI50 [1]: 31.9 µM
TGI [1]: > 100 µM
GI50 [2]: 27 µM
TGI [2]: > 100 µM
GI50 [3]: 15.4 µM
TGI [3]: 34.2 µM
GI50 [4]: 36.2 µM
TGI [4]: > 100 µM
GI50 [5]: 27 µM
TGI [5]: 92.3 µM
GI50 [6]: 19.8 µM
TGI [6]: 60.8 µM
GI50 [7]: 20.6 µM
TGI [7]: 50 µM
GI50 [8]: 30.6 µM
TGI [8]: > 100 µM
GI50 [9]: 35.6 µM
TGI [9]: > 100 µM
GI50 [10]: 64.4 µM
TGI [10]: > 100 µM
GI50 [11]: > 100 µM
TGI [11]: > 100 µM
GI50 [12]: 40.7 µM
TGI [12]: > 100 µM
GI50 [13]: 93 µM
TGI [13]: > 100 µM
GI50 [14]: 31.1 µM
TGI [14]: > 100 µM
GI50 [15]: 45.3 µM
TGI [15]: > 100 µM
GI50 [16]: 23.6 µM
TGI [16]: 68.8 µM
GI50 [18]: 17.3 µM
TGI [18]: 33.3 µM
GI50 [19]: 11.6 µM
TGI [19]: > 100 µM
GI50 [20]: 74.9 µM
TGI [20]: > 100 µM
GI50 [21]: 11.7 µM
TGI [21]: 45.6 µM
GI50 [22]: 24.8 µM
TGI [22]: 88.7 µM
GI50 [23]: 27.8 µM
TGI [23]: > 100 µM
GI50 [24]: > 100 µM
TGI [24]: > 100 µM
GI50 [25]: 26.4 µM
TGI [25]: 90.2 µM
GI50 [26]: 20.8 µM
TGI [26]: 52.2 µM
GI50 [27]: > 100 µM
TGI [27]: > 100 µM
GI50 [28]: 48.8 µM
TGI [28]: > 100 µM
GI50 [29]: 30.6 µM
TGI [29]: 75.7 µM
GI50 [30]: 17.8 µM
TGI [30]: 37.2 µM
GI50 [32]: 23.1 µM
TGI [32]: > 100 µM
GI50 [33]: 23.7 µM
TGI [33]: 75.3 µM
GI50 [34]: 27.1 µM
TGI [34]: > 100 µM
GI50 [35]: 34 µM
TGI [35]: > 100 µM
GI50 [36]: 36.6 µM
TGI [36]: > 100 µM
GI50 [37]: 71.5 µM
TGI [37]: > 100 µM
GI50 [38]: 26.8 µM
TGI [38]: 97.9 µM
GI50 [39]: 40.9 µM
TGI [39]: > 100 µM
GI50 [40]: 17.7 µM
TGI [40]: 58.3 µM
GI50 [41]: 83.9 µM
TGI [41]: > 100 µM
GI50 [42]: 24.9 µM
TGI [42]: 51.4 µM
GI50 [43]: 21.6 µM
TGI [43]: 74.4 µM
GI50 [45]: 26.6 µM
TGI [45]: 76.6 µM
GI50 [46]: 35.5 µM
TGI [46]: > 100 µM
GI50 [47]: 20.4 µM
TGI [47]: 45.5 µM
GI50 [48]: 16.2 µM
TGI [48]: 80.5 µM
GI50 [49]: 37.9 µM
TGI [49]: > 100 µM
GI50 [50]: 21.4 µM
TGI [50]: 54 µM
GI50 [51]: 15.3 µM
TGI [51]: 29.1 µM
GI50 [52]: 29.2 µM
TGI [52]: > 100 µM
GI50 [53]: 38.5 µM
TGI [53]: > 100 µM
GI50 [54]: 30.4 µM
TGI [54]: > 100 µM
GI50 [55]: 62.1 µM
TGI [55]: > 100 µM
GI50 [56]: 26.7 µM
TGI [56]: 65.6 µM
GI50 [57]: 23.6 µM
TGI [57]: 47 µM
